Each structure is given as a SMILES string.

T1 sequence (P50406 whole entry): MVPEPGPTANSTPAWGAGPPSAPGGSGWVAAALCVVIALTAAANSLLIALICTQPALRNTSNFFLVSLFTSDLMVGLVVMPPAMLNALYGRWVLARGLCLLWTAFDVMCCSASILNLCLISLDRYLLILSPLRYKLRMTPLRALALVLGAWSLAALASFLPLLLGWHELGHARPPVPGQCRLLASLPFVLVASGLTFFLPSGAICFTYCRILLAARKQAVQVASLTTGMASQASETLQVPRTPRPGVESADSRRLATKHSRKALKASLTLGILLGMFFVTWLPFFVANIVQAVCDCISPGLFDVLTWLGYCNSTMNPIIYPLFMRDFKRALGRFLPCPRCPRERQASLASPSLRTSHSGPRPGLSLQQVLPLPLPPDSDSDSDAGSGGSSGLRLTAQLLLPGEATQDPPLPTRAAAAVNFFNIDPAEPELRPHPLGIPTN

This experiment concerns the target T1, recombinant human 5-HT6 receptor (Homo sapiens, UniProt P50406).
T1 construct: expressed in transfected cells; cell membranes used
The experiment can be described thus: in vitro radioligand binding, competition for [3H]LSD binding in membranes of HEK293 cells. The settings on record: [3H]LSD (5 nM), HEK293 cell membranes, pH 7.4, 37° C., 60 min. The protocol:
This example illustrates in vitro radioligand binding studies of Compound of Formula I.
The binding activity of compounds of this invention in vitro was determined as follows. Duplicate determinations of ligand affinity are made by competing for binding of [^3H]LSD in cell membranes derived from HEK293 cells stably expressing recombinant human 5-HT6 receptor.
All determinations were made in assay buffer containing 50 mM Tris-HCl, 10 mM MgSO4, 0.5 mM EDTA, 1 mM ascorbic acid, pH 7.4 at 37° C., in a 250 microliter reaction volume. Assay tubes containing [3H] LSD (5 nM), competing ligand, and membrane were incubated in a shaking water bath for 60 min. at 37° C., filtered onto Packard GF-B plates (pre-soaked with 0.3% PEI) using a Packard 96 well cell harvester and washed 3 times in ice cold 50 mM Tris-HCl. Bound [^3H] LSD was determined as radioactive counts per minute using Packard TopCount.
Displacement of [3H]LSD from the binding sites was quantified by fitting concentration-binding data to a 4-parameter logistic equation:
[formula] where Hill is the Hill slope, [ligand] is the concentration of competing radioligand and IC50 is the concentration of radioligand producing half-maximal specific binding of radioligand. The specific binding window is the difference between the Bmax and the basal parameters.
Using the procedures of Example 6, compounds of Formula I were tested and found to be selective 5-HT6 antagonists.
Take `CN1CCN(c2cccc3cc(S(=O)(=O)c4cccc(Br)c4)[nH]c23)CC1` [Compound 10, 2-(3-Bromo-benzenesulfonyl)-7-(4-methyl-piperazin-1-yl)-1H-indole]: the Ki is 0.251 nM. With `O=S(=O)(c1cccc(Br)c1)c1cc2cccc(N3CCNCC3)c2[nH]1` [Compound 11, 2-(3-Bromo-benzenesulfonyl)-7-piperazin-1-yl-1H-indole] the figure was 0.501 nM; with `O=S(=O)(c1ccccc1)c1cc2cccc(N3CCNCC3)c2[nH]1` [Compound 1, 2-Benzenesulfonyl-7-piperazin-1-yl-1H-indole], 0.501 nM. With `CN1CCC(c2cccc3cc(S(=O)(=O)c4ccccc4)[nH]c23)CC1` [Compound 7, 2-Benzenesulfonyl-7-(1-methyl-piperidin-4-yl)-1H-indole] the figure was 1 nM; with `O=S(=O)(c1cc2cccc(N3CCNCC3)c2[nH]1)c1ccccc1F` [Compound 5, 2-(2-Fluoro-benzenesulfonyl)-7-piperazin-1-yl-1H-indole], 0.501 nM; with `CN1CCN(c2cccc3cc(S(=O)(=O)c4cccc(Cl)c4Cl)[nH]c23)CC1` [Compound 4, 2-(2,3-Dichloro-benzenesulfonyl)-7-(4-methyl-piperazin-1-yl)-1H-indole], 0.794 nM.

Consider `CN1CCN(c2cccc3cc(S(=O)(=O)c4ccccc4C(F)(F)F)[nH]c23)CC1` [Compound 8, 7-(4-Methyl-piperazin-1-yl)-2-(2-trifluoromethyl-benzenesulfonyl)-1H-indole], for which the Ki is 0.316 nM. As for `O=S(=O)(c1cc2cccc(N3CCNCC3)c2[nH]1)c1cccc(Cl)c1Cl` [Compound 3, 2-(2,3-Dichloro-benzenesulfonyl)-7-piperazin-1-yl-1H-indole], the Ki is 0.2 nM. With `O=S(=O)(c1ccccc1)c1cc2cccc(C3CCNCC3)c2[nH]1` [Compound 6, 2-Benzenesulfonyl-7-piperidin-4-yl-1H-indole] the figure was 0.631 nM; with `O=S(=O)(c1cc2cccc(N3CCNCC3)c2[nH]1)c1ccccc1C(F)(F)F` [Compound 9, 7-Piperazin-1-yl-2-(2-trifluoromethyl-benzenesulfonyl)1H-indole], 0.316 nM; with `CN1CCN(c2cccc3cc(S(=O)(=O)c4ccccc4)[nH]c23)CC1` [Compound 2, 2-Benzenesulfonyl-7-(4-methyl-piperazin-1-yl)-1H-indole], 0.794 nM.

A word on the Ki: it is the equilibrium dissociation constant of an inhibitor or competing ligand from its target.

For the origin of these results see US7247651B2, “2,7-substituted indoles” (Roche Palo Alto LLC, priority 2002, dated 2007).
